Results as given in ChEMBL document CHEMBL5046255, “Design and synthesis of dual inhibitors targeting snail and histone deacetylase for the treatment of solid tumour cancer” (Eur J Med Chem, 2022).
Active and inactive are the calls of the source. The rule behind the calls is not given here.

What was measured:
HOP-92 = assay: Antiproliferative activity against human HOP-92 cells assessed as growth inhibition incubated for 72 hrs by luminescence assay; assay type: functional
MDA-MB-468 = assay: Antiproliferative activity against human MDA-MB-468 cells assessed as growth inhibition incubated for 72 hrs by luminescence assay; assay type: functional
RPMI-8226 = assay: Antiproliferative activity against human RPMI-8226 cells assessed as growth inhibition incubated for 72 hrs by luminescence assay; assay type: functional
[1] = Metabolic stability in dog plasma assessed as half life at 100 uM measured upto 120 mins by LC-MS/MS analysis; assay type: ADME, cell-free, Canis lupus familiaris
[2] = Clearance in Sprague-Dawley rat at 1 mg/kg, iv measured up to 24 hrs by LC-MS/MS analysis; assay type: ADME, organism-based; conditions: in vivo
[3] = AUC (0 to t) in Sprague-Dawley rat at 1 mg/kg, iv measured up to 24 hrs by LC-MS/MS analysis; assay type: ADME, organism-based; set-up: route intravenous, dose 1 mg/kg, time <=24; conditions: in vivo
[4] = Metabolic stability in human plasma assessed as half life at 100 uM measured upto 120 mins by LC-MS/MS analysis; assay type: ADME, cell-free
NCI-H522 = assay: Antiproliferative activity against human NCI-H522 cells assessed as growth inhibition incubated for 72 hrs by luminescence assay; assay type: functional
SF-295 = assay: Antiproliferative activity against human SF-295 cells assessed as growth inhibition incubated for 72 hrs by luminescence assay; assay type: functional
MOLT-4 = assay: Antiproliferative activity against human MOLT-4 cells assessed as growth inhibition incubated for 72 hrs by luminescence assay; assay type: functional
BT-549 = assay: Antiproliferative activity against human BT-549 cells assessed as growth inhibition incubated for 72 hrs by luminescence assay; assay type: functional
COLO 205 = assay: Antiproliferative activity against human COLO 205 cells assessed as growth inhibition incubated for 72 hrs by luminescence assay; assay type: functional
[5] = Tmax in Sprague-Dawley rat at 10 mg/kg, po measured up to 24 hrs by LC-MS/MS analysis; assay type: ADME, organism-based; conditions: in vivo
U-251 = assay: Antiproliferative activity against human U-251 cells assessed as growth inhibition incubated for 72 hrs by luminescence assay; assay type: functional
SK-MEL-5 = assay: Antiproliferative activity against human SK-MEL-5 cells assessed as growth inhibition incubated for 72 hrs by luminescence assay; assay type: functional
Histone deacetylase 4 = Histone deacetylase 4 (Homo sapiens, UniProt P56524); assay: Inhibition of HDAC4 (unknown origin) using Boc-Lys(TFA)-AMC as fluorogenic substrate incubated for 30 mins by fluorescence based assay
Histone deacetylase 4, sequence (P56524 whole entry): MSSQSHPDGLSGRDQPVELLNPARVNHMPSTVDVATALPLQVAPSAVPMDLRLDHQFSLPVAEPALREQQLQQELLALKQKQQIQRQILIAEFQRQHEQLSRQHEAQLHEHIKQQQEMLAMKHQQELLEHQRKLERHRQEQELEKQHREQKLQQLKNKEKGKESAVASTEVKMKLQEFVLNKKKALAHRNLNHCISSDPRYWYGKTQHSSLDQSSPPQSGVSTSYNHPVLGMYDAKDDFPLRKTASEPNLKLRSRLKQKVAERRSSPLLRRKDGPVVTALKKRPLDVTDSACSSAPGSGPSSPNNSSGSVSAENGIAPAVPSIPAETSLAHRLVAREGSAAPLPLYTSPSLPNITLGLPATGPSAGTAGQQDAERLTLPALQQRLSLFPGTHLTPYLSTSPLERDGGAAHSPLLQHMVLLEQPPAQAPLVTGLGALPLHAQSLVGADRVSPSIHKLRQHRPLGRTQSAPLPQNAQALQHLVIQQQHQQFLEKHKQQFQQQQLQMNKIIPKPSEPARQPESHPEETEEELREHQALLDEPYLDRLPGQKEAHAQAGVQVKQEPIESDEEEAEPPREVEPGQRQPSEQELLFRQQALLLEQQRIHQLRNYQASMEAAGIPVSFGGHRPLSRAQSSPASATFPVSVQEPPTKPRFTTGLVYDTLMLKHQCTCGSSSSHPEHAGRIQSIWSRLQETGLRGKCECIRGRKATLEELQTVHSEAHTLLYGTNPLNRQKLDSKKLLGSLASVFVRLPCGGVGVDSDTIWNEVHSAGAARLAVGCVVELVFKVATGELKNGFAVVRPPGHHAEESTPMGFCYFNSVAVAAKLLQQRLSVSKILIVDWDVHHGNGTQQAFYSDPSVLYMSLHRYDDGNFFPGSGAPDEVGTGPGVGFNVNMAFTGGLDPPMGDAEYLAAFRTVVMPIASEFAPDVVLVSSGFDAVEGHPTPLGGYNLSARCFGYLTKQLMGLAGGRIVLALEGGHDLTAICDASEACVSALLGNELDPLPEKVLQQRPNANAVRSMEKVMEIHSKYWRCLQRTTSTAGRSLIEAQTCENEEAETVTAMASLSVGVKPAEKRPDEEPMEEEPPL

ACHN = assay: Antiproliferative activity against human ACHN cells assessed as growth inhibition incubated for 72 hrs by luminescence assay; assay type: functional
MDA-MB-435 = assay: Antiproliferative activity against human MDA-MB-435 cells assessed as growth inhibition incubated for 72 hrs by luminescence assay; assay type: functional
K562 = assay: Antiproliferative activity against human K562 cells assessed as growth inhibition incubated for 72 hrs by luminescence assay; assay type: functional
EKVX = assay: Antiproliferative activity against human EKVX cells assessed as growth inhibition incubated for 72 hrs by luminescence assay; assay type: functional
[6] = Metabolic stability in rat liver microsomes assessed as intrinsic clearance incubated for 10 mins by LC-MS/MS analysis; assay type: ADME, Microsome; conditions: read-out: CLH
[7] = target: Histone deacetylase (Homo sapiens) (UniProt Q13547+O15379+Q9UBN7+Q92769+Q9UQL6+Q8WUI4+Q9BY41+Q96DB2+P56524+Q9UKV0+Q969S8); assay: Inhibition of HDAC in human HCT-116 cells assessed as increase in Ac-H4 expression at 50 nM measured after 24 hrs by western blot analysis; assay type: cell-based
[8] = Metabolic stability in dog liver microsomes assessed as half life incubated for 10 mins by LC-MS/MS analysis; assay type: ADME, Canis lupus familiaris, Microsome
IGROV-1 = assay: Antiproliferative activity against human IGROV-1 cells assessed as growth inhibition incubated for 72 hrs by luminescence assay; assay type: functional
SK-MEL-2 = assay: Antiproliferative activity against human SK-MEL-2 cells assessed as growth inhibition incubated for 72 hrs by luminescence assay; assay type: functional
Hs-578T = assay: Antiproliferative activity against human Hs-578T cells assessed as growth inhibition incubated for 72 hrs by luminescence assay; assay type: functional
TK-10 = assay: Antiproliferative activity against human TK-10 cells assessed as growth inhibition incubated for 72 hrs by luminescence assay; assay type: functional
OVCAR-3 = assay: Antiproliferative activity against human OVCAR-3 cells assessed as growth inhibition incubated for 72 hrs by luminescence assay; assay type: functional
Histone deacetylase 1 = Histone deacetylase 1 (Homo sapiens, UniProt Q13547); assay: Inhibition of HDAC1 (unknown origin) using p53 (379 to 382 residues) (RHKK(Ac-AMC) as fluorogenic substrate incubated for 1 hrs by fluorescence based assay
Histone deacetylase 1, sequence (Q13547 whole entry, the tested form may be a part): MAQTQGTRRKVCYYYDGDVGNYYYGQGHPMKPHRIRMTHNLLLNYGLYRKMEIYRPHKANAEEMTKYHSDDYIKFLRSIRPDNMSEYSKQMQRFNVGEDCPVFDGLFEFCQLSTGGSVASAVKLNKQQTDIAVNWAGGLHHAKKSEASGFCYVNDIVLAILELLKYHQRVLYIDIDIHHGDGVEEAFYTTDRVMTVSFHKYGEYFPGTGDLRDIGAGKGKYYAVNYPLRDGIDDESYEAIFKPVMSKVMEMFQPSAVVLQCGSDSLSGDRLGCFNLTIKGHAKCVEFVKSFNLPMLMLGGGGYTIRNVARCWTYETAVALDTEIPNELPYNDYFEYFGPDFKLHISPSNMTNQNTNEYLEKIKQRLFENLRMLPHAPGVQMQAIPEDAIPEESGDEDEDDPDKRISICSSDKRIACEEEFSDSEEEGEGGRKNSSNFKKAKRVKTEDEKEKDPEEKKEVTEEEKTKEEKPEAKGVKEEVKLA

HCT-116 [9] = assay: Effect on SNAI1 protein expression in human HCT-116 cells at 75 nM measured after 24 hrs by western blot analysis; assay type: functional, cell-based
[10] = Binding affinity to SNAI1 (unknown origin) assessed as dissociation constant; set-up: species or system Homo sapiens
[11] = Metabolic stability in human plasma assessed as parent compound remaining at 100 uM measured after 2 hrs by LC-MS/MS analysis; assay type: ADME, cell-free; conditions: read-out: Stability
HCT-116 [12] = assay: Antiproliferative activity against human HCT-116 cells assessed as cell viability at 1 uM incubated for 72 hrs by luminescence assay; assay type: functional, cell-based; conditions: HCT-116, 72 h
[13] = Metabolic stability in human liver microsomes assessed as intrinsic clearance incubated for 10 mins by LC-MS/MS analysis; assay type: ADME, Microsome; conditions: read-out: CLH
OVCAR-5 = assay: Antiproliferative activity against human OVCAR-5 cells assessed as growth inhibition incubated for 72 hrs by luminescence assay; assay type: functional
[14] = Metabolic stability in monkey liver microsomes assessed as half life incubated for 10 mins by LC-MS/MS analysis; assay type: ADME, Macaca mulatta, Microsome; conditions: rhesus monkey
SF-539 = assay: Antiproliferative activity against human SF-539 cells assessed as growth inhibition incubated for 72 hrs by luminescence assay; assay type: functional
LOX IMVI = assay: Antiproliferative activity against human LOX IMVI cells assessed as growth inhibition incubated for 72 hrs by luminescence assay; assay type: functional
[15] = Metabolic stability in dog plasma assessed as parent compound remaining at 100 uM measured after 2 hrs by LC-MS/MS analysis; assay type: ADME, cell-free, Canis lupus familiaris; conditions: read-out: Stability
M14 = assay: Antiproliferative activity against human M14 cells assessed as growth inhibition incubated for 72 hrs by luminescence assay; assay type: functional
MDA-MB-231 = assay: Antiproliferative activity against human MDA-MB-231 cells assessed as growth inhibition incubated for 72 hrs by luminescence assay; assay type: functional
HCT-15 = assay: Antiproliferative activity against human HCT-15 cells assessed as growth inhibition incubated for 72 hrs by luminescence assay; assay type: functional
SN12C = assay: Antiproliferative activity against human SN12C cells assessed as growth inhibition incubated for 72 hrs by luminescence assay; assay type: functional
UO-31 = assay: Antiproliferative activity against human UO-31 cells assessed as growth inhibition incubated for 72 hrs by luminescence assay; assay type: functional
UACC-62 = assay: Antiproliferative activity against human UACC-62 cells assessed as growth inhibition incubated for 72 hrs by luminescence assay; assay type: functional
SW-620 = assay: Antiproliferative activity against human SW-620 cells assessed as growth inhibition incubated for 72 hrs by luminescence assay; assay type: functional

GI50 (MDA-MB-468): 432 nM | GI50 (RPMI-8226): 514 nM | half-life at 100 µM [1]: 7.15 h | clearance [2]: 24.2 mL/min/kg | AUCt [3]: 715 ng·h/mL | half-life at 100 µM [4]: 5.62 h | GI50 (NCI-H522): 48.8 nM | GI50 (MOLT-4): 508 nM | GI50 (BT-549): 296 nM | GI50 (COLO 205): 296 nM | Tmax [5]: 4 h | GI50 (U-251): 343 nM | GI50 (SK-MEL-5): 334 nM | IC50 (Histone deacetylase 4): > 10000 nM | GI50 (ACHN): 1240 nM | GI50 (MDA-MB-435): 36.1 nM | GI50 (K562): 48.7 nM | microsomal CLint [6]: 110 µL/min/mg | Activity [7]: Active | half-life [8]: 0.868 h | GI50 (SK-MEL-2): 617 nM | GI50 (OVCAR-3): 202 nM | IC50 (Histone deacetylase 1): 405 nM | Kd [10]: 180 nM | remaining at 2 h, 100 µM [11]: 79.1% | IC50 (HCT-116 [12]): 75.1 nM | microsomal CLint [13]: 20.9 µL/min/mg | GI50 (OVCAR-5): 657 nM | half-life [14]: 0.463 h | remaining at 2 h, 100 µM [15]: 85.7% | GI50 (MDA-MB-231): 854 nM | GI50 (HCT-15): 424 nM | GI50 (SW-620): 426 nM
Structure (SMILES): Cc1cc(Nc2nc(SCc3ccc(C(=O)Nc4ccc(F)cc4N)cc3)nn3cccc23)n[nH]1
GI50 (HOP-92): 3680 nM | GI50 (SF-295): 354 nM | GI50 (EKVX): 919 nM | GI50 (IGROV-1): 558 nM | GI50 (Hs-578T): 429 nM | GI50 (TK-10): 1210 nM | Activity (HCT-116 [9]): Active | GI50 (SF-539): 282 nM | GI50 (LOX IMVI): 665 nM | GI50 (M14): 289 nM | GI50 (SN12C): 1250 nM | GI50 (UO-31): 1330 nM | GI50 (UACC-62): 347 nM
